From BigSolDB 2.1

O=C(O)C[C@H](O)C(=O)O
solubility (mole fraction)
Settings	278.15 K	283.15 K	288.15 K	293.15 K	298.15 K	303.15 K	308.15 K	313.15 K	318.15 K	323.15 K
in acetone	0.136	0.145	0.153	0.163	0.17	0.18	0.189	0.201	0.211	0.225
in acetonitrile	0.045	0.0485	0.0523	0.0559	0.0608	0.0646	0.0684	0.0733	0.0783	0.0838
in ethanol	0.11	0.126	0.145	0.166	0.187	0.207	0.232	0.256	0.283	0.314
in ethyl acetate	0.0017	0.0029	0.005	0.0083	0.0134	0.0213	0.0333	0.0516	0.0763	0.113
in isopropanol	0.117	0.136	0.157	0.178	0.203	0.228	0.256	0.285	0.314	0.345
in n-butanol	0.0832	0.0948	0.109	0.124	0.14	0.159	0.18	0.201	0.225	0.25
in n-propanol	0.0917	0.103	0.118	0.134	0.153	0.172	0.193	0.215	0.238	0.264
